Source: patent US8975417B2, “Pyrazolopyrrolidine derivatives and their use in the treatment of disease” (Novartis AG, priority 2013, dated 2015)

What was measured:
His-Brd3(20-477) = His-Brd3(20-477) (Homo sapiens (Human), UniProt Q15059); test: TR-FRET in-vitro binding assay for BRD3; conditions: biochemical
Procedure, shortened: (§1)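 His-tagged BRD2(60-472), BRD3(20-477) or BRD4(44-477), 45 nM in dispensing solution, with 60 nM tetra-acetylated histone H4 peptide (AcK5/8/12/16) in dispensing solution; HEPES pH 7.5, 50 mM NaCl, 0.1% BSA, 30 °C, 35 min. Eu-anti-His6 antibody plus streptavidin-APC added for TR-FRET read-out; 8-point compound dilutions.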

His-Brd2(60-472) = His-Brd2(60-472) (Homo sapiens (Human), UniProt P25440); test: TR-FRET in-vitro binding assay for BRD2; conditions: biochemical
Procedure, shortened: as §1

THP-1 cells = test: Cell growth inhibition assay (CellTiter-Glo), THP-1; assay type: cell-based; conditions: Homo sapiens, read-out: THP-1 TGI
Procedure, shortened: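 Compounds tested as 3-fold dilution series starting at 10 μM (DMSO 0.1% final); viability read by cellular ATP (CTG luminescence) at 37° C. Signal corrected for no-cell background and a day-0 plate, scaled −100% to 100%; four-parameter fitting gives IC50 and TGI.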

His-Brd4(44-477) = His-Brd4(44-477) (Homo sapiens (Human), UniProt O60885); test: TR-FRET in-vitro binding assay for BRD4; conditions: biochemical
Procedure, shortened: as §1

Chain of His-Brd2(60-472) (P25440 60-472): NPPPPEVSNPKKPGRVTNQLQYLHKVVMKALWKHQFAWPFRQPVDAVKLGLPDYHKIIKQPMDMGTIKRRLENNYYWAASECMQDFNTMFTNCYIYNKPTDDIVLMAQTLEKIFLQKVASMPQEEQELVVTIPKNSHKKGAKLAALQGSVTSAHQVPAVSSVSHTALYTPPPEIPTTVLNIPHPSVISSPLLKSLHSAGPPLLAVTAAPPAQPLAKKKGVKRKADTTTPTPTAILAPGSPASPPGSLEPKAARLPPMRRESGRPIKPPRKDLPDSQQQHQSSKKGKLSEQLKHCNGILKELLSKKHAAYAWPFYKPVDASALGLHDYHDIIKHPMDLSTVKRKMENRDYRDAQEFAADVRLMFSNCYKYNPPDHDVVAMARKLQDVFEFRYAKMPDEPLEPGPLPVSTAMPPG
Chain of His-Brd3(20-477) (Q15059 20-477): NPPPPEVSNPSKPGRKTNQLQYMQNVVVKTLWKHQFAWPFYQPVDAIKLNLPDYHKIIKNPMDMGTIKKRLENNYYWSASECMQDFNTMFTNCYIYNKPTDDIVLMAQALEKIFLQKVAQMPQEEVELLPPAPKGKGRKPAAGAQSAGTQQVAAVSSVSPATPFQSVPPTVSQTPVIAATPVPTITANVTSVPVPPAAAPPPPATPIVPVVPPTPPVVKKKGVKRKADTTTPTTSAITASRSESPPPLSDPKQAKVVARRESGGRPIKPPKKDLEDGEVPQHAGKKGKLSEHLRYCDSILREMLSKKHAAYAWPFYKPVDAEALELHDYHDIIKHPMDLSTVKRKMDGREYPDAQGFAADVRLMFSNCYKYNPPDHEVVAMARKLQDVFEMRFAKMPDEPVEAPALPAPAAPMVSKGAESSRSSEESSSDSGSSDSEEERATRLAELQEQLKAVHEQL

Row | SMILES | IC50 (His-Brd3(20-477)) [nM] | IC50 (His-Brd2(60-472)) [nM] | IC50 (His-Brd4(44-477)) [nM] | IC (total growth inhibition) (THP-1 cells) [µM]
1 | CCc1nn(C2CC2)c2c1C(c1ccc(Cl)cc1)N(c1cc(OC)c3nnc(C)n3c1)C2=O (stereo not drawn) [Example 84, 4-(4-chlorophenyl)-1-cyclopropyl-3-ethyl-5-(8-methoxy-3-methyl-[1,2,4]triazolo[4,3-a]pyridin-6-yl)-4,5-dihydropyrrolo[3,4-c]pyrazol-6(1H)-one] | 61.5 | 37 | 28 | 0.163
2 | CCc1nn(-c2ccnn2C)c2c1C(c1ccc(Cl)cc1)N(c1cc(C)c(=O)n(C)c1)C2=O (stereo not drawn) [Example 89, 4-(4-chlorophenyl)-5-(1,5-dimethyl-6-oxo-1,6-dihydropyridin-3-yl)-3-ethyl-1-(1-methyl-1H-pyrazol-5-yl)-4,5-dihydropyrrolo[3,4-c]pyrazol-6(1H)-one] | 57 | 60 | 47 | 0.119
3 | Cc1nn(-c2ccnn2C)c2c1C(c1ccc(Cl)cc1)N(c1cc(C)c3nnc(C)n3c1)C2=O (stereo not drawn) [Example 90, 4-(4-chlorophenyl)-5-(3,8-dimethyl-[1,2,4]triazolo[4,3-a]pyridin-6-yl)-3-methyl-1-(1-methyl-1H-pyrazol-5-yl)-4,5-dihydropyrrolo[3,4-c]pyrazol-6(1H)-one] | 28 | 28 | 15 | 0.115
4 | Cc1cc(N2C(=O)c3nn(C4CC4)c(C)c3C2c2ccc(Cl)cc2)cn2c(C)nnc12 (stereo not drawn) [Example 93, 4-(4-chlorophenyl)-2-cyclopropyl-5-(3,8-dimethyl-[1,2,4]triazolo[4,3-a]pyridin-6-yl)-3-methyl-4,5-dihydropyrrolo[3,4-c]pyrazol-6(2H)-one] | 31 | 45 | 27 | 0.0518
5 | Cc1nn(C2CC2)c2c1C(c1ccc(OC(F)(F)F)cc1)N(c1cc(C)c(=O)n(C)c1)C2=O (stereo not drawn) [Example 95, 1-cyclopropyl-5-(1,5-dimethyl-6-oxo-1,6-dihydropyridin-3-yl)-3-methyl-4-(4-(trifluoromethoxy)phenyl)-4,5-dihydropyrrolo[3,4-c]pyrazol-6(1H)-one] | 73 | 63 | 64 | 0.411
6 | Cc1nn(C2CC2)c2c1C(c1cccc(C(F)(F)F)c1)N(c1cc(C)c(=O)n(C)c1)C2=O (stereo not drawn) [Example 96, 1-cyclopropyl-5-(1,5-dimethyl-6-oxo-1,6-dihydropyridin-3-yl)-3-methyl-4-(3-(trifluoromethyl)phenyl)-4,5-dihydropyrrolo[3,4-c]pyrazol-6(1H)-one] | 800 | 660 | 780 | 2.55
7 | Cc1nn(C2CC2)c2c1C(c1ccc(C(F)(F)F)cc1)N(c1cc(C)c(=O)n(C)c1)C2=O (stereo not drawn) [Example 97, 1-cyclopropyl-5-(1,5-dimethyl-6-oxo-1,6-dihydropyridin-3-yl)-3-methyl-4-(4-(trifluoromethyl)phenyl)-4,5-dihydropyrrolo[3,4-c]pyrazol-6(1H)-one] | 120 | 88 | 89 | 0.274
8 | COc1ncc(-n2nc(C)c3c2C(=O)N(c2cc(C)c(=O)n(C)c2)[C@H]3c2ccc(Cl)cc2)c(OC)n1 [Example 99, (S)-4-(4-chlorophenyl)-1-(2,4-dimethoxypyrimidin-5-yl)-5-(1,5-dimethyl-6-oxo-1,6-dihydropyridin-3-yl)-3-methyl-4,5-dihydropyrrolo[3,4-c]pyrazol-6(1H)-one] | 7600 | 6000 | 7800 | > 10
9 | COc1ncccc1-n1nc(C)c2c1C(=O)N(c1cc(C)c3nnc(C)n3c1)C2c1ccc(Cl)cc1 (stereo not drawn) [Example 101, 4-(4-chlorophenyl)-5-(3,8-dimethyl-[1,2,4]triazolo[4,3-a]pyridin-6-yl)-1-(2-methoxypyridin-3-yl)-3-methyl-4,5-dihydropyrrolo[3,4-c]pyrazol-6(1H)-one] | 36 | 43 | 34 | 0.102
10 | Cc1nn(C(C)C)c2c1[C@@H](c1ccc(Cl)cc1)N(c1cc(C)c(=O)n(C)c1)C2=O [Example 104, (R)-4-(4-chlorophenyl)-5-(1,5-dimethyl-6-oxo-1,6-dihydropyridin-3-yl)-1-isopropyl-3-methyl-4,5-dihydropyrrolo[3,4-c]pyrazol-6(1H)-one] | 15 | 14 | 13 | 0.045
11 | CCc1nn(C2CC2)c2c1[C@@H](c1ccc(Cl)cc1)N(c1cc(C)c3nnc(C)n3c1)C2=O [Example 107, (R)-4-(4-chlorophenyl)-1-cyclopropyl-5-(3,8-dimethyl-[1,2,4]triazolo[4,3-a]pyridin-6-yl)-3-ethyl-4,5-dihydropyrrolo[3,4-c]pyrazol-6(1H)-one] | 13 | 14 | < 11 | 0.0199
12 | COc1ncccc1-n1nc(C)c2c1C(=O)N(c1cc(C)c3nnn(C)c3n1)C2c1ccc(Cl)cc1 (stereo not drawn) [Example 109, 4-(4-chlorophenyl)-5-(3,7-dimethyl-3H-[1,2,3]triazolo[4,5-b]pyridin-5-yl)-1-(2-methoxypyridin-3-yl)-3-methyl-4,5-dihydropyrrolo[3,4-c]pyrazol-6(1H)-one] | 27 | 27 | 17 | 0.0904
13 | Cc1nn(C2CC2)c2c1C(c1ccc(Cl)cc1)N(c1cc(C)c3nnn(C)c3n1)C2=O (stereo not drawn) [Example 110, 4-(4-chlorophenyl)-1-cyclopropyl-5-(3,7-dimethyl-3H-[1,2,3]triazolo[4,5-b]pyridin-5-yl)-3-methyl-4,5-dihydropyrrolo[3,4-c]pyrazol-6(1H)-one] | 14 | 18 | 12 | 0.0198

The remaining compounds from weak to strong by IC50 (His-Brd3(20-477)), led by results:

Row | IC50 (His-Brd3(20-477)) [nM] | IC50 (His-Brd2(60-472)) [nM] | IC50 (His-Brd4(44-477)) [nM] | SMILES | IC (total growth inhibition) (THP-1 cells) [µM]
14 | 6100 | 5300 | 11000 | Cc1nn(C(C)C)c2c1[C@H](c1ccc(Cl)cc1)N(c1cc(C)c(=O)n(C)c1)C2=O [Example 103, (S)-4-(4-chlorophenyl)-5-(1,5-dimethyl-6-oxo-1,6-dihydropyridin-3-yl)-1-isopropyl-3-methyl-4,5-dihydropyrrolo[3,4-c]pyrazol-6(1H)-one] | > 10
15 | 4400 | 2900 | 2200 | CCc1nn(C2CC2)c2c1[C@H](c1ccc(Cl)cc1)N(c1cc(C)c3nnc(C)n3c1)C2=O [Example 106, (S)-4-(4-chlorophenyl)-1-cyclopropyl-5-(3,8-dimethyl-[1,2,4]triazolo[4,3-a]pyridin-6-yl)-3-ethyl-4,5-dihydropyrrolo[3,4-c]pyrazol-6(1H)-one] | 4.68
16 | 280 | 210 | 140 | CCc1nn(CCOCC(F)(F)F)c2c1C(c1ccc(Cl)cc1)N(c1cc(OC)c3nnc(C)n3c1)C2=O (stereo not drawn) [Example 108, 4-(4-chlorophenyl)-3-ethyl-5-(8-methoxy-3-methyl-[1,2,4]triazolo[4,3-a]pyridin-6-yl)-1-(2-(2,2,2-trifluoroethoxy)ethyl)-4,5-dihydropyrrolo[3,4-c]pyrazol-6(1H)-one] | 0.832
17 | 150 | 130 | 68 | CCc1nn(C)c2c1C(c1ccc(Cl)cc1)N(c1cc(OC)c3nnc(C)n3c1)C2=O (stereo not drawn) [Example 105, 4-(4-chlorophenol)-3-ethyl-5-(8-methoxy-3-methyl-[1,2,4]triazolo[4,3-a]pyridin-6-yl)-1-methyl-4,5-dihydropyrrolo[3,4-c]pyrazol-6(1H)-one] | 0.335
18 | 59 | 72 | 50 | CCc1nn(CCOC)c2c1C(c1ccc(Cl)cc1)N(c1cc(C)c3nnc(C)n3c1)C2=O (stereo not drawn) [Example 87, 4-(4-chlorophenyl)-5-(3,8-dimethyl-[1,2,4]triazolo[4,3-a]pyridin-6-yl)-3-ethyl-1-(2-methoxyethyl)-4,5-dihydropyrrolo[3,4-c]pyrazol-6(1H)-one] | 0.0598
19 | 55 | 72 | 59 | Cc1nn(C2CC2)c2c1C(c1ccc(Cl)cc1)N(c1ccc3nnn(C)c3n1)C2=O (stereo not drawn) [Example 102, 4-(4-chlorophenyl)-1-cyclopropyl-3-methyl-5-(3-methyl-3H-[1,2,3]triazolo[4,5-b]-pyridin-5-yl)-4,5-dihydropyrrolo[3,4-c]pyrazol-6(1H)-one] | 0.304
20 | 28 | 25 | 24 | Cc1nn(C2CCC2)c2c1C(c1ccc(Cl)cc1)N(c1cc(C)c(=O)n(C)c1)C2=O (stereo not drawn) [Example 94, 4-(4-chlorophenyl)-1-cyclobutyl-5-(1,5-dimethyl-6-oxo-1,6-dihydropyridin-3-yl)-3-methyl-4,5-dihydropyrrolo[3,4-c]pyrazol-6(1H)-one] | 0.0765
21 | 27 | 28 | 25 | COc1ncc(-n2nc(C)c3c2C(=O)N(c2cc(C)c(=O)n(C)c2)[C@@H]3c2ccc(Cl)cc2)c(OC)n1 [Example 100, (R)-4-(4-chlorophenyl)-1-(2,4-dimethoxypyrimidin-5-yl)-5-(1,5-dimethyl-6-oxo-1,6-dihydropyridin-3-yl)-3-methyl-4,5-dihydropyrrolo[3,4-c]pyrazol-6(1H)-one] | 0.153
